We go through 21 compounds from patent US11708340B2, “Benzothia(di)azepine compounds and their use as bile acid modulators” (Albireo AB, priority 2019, dated 2023).

Test [1] concerns the target T1, Human LBAT (Homo sapiens, UniProt Q14973).
T1 construct: expressed in transfected cells; Geneticin selection
T1 sequence (Q14973 1-349): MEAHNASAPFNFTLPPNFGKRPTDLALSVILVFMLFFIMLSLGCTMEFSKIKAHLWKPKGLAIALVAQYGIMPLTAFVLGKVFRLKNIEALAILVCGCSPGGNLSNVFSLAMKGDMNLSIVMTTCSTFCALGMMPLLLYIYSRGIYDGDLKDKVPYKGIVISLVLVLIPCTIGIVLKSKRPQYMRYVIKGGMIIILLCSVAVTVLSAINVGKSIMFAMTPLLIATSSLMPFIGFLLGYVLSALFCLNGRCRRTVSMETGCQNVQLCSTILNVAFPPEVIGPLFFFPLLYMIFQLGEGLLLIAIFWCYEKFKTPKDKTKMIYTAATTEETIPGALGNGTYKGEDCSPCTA
Briefly: LBAT (h/m) assay, human LBAT-overexpressing cells, 3H-taurocholic acid uptake. The test is classed as cell-based. The following applies: 0.3 μM 3H-taurocholic acid and 7.5 μM cold taurocholic acid, 20 minutes, read-out: hLBAT IC50. The protocol:
20,000 cells (Human or Mouse LBAT-overexpressing cells) were seeded in 96-wells plate (Corning CLS3809) in 100 μL MEM-alpha medium (Gibco 12571-063) supplemented with 10% FBS (Gibco 10438026) containing Geneticin (Gibco 10131-027) (1 mg/mL) and incubated at 37° C. in 5% CO2 for 24 hours. After incubation, media was decanted from the wells and cells were washed two times with 300 μL of basal MEM-alpha medium (FBS-free). After decanting basal MEM-alpha medium each time, plates were tapped against paper towel to ensure maximum removal of residual media.
For human LBAT, incubation mix was prepared by adding test inhibitor dilutions (3-fold serial dilution in DMSO (Sigma D2650), 10 points) in MEM-alpha (without FBS) containing 0.3 μM 3H-taurocholic acid (ARC ART-1368) and 7.5 μM cold taurocholic acid (Sigma T4009) (maintaining 0.2% final DMSO concentration). For mouse LBAT, incubation mix was prepared by adding test inhibitor dilutions (3-fold serial dilution in DMSO, 10 points) in MEM-alpha (without FBS) containing 0.3 μM 3H-taurocholic acid and 25 μM cold taurocholic acid maintaining 0.2% final DMSO concentration).
50 μL of incubation mix containing test inhibitors was then added to the wells (in duplicate) and the plates were incubated for 20 minutes in a CO2 incubator at 37° C. After incubation, the reaction was stopped by keeping the plates on ice water mix for 2-3 minutes and then the incubation mix was aspirated completely from the wells. The wells were washed two times with 250 μL of chilled unlabeled 1 mM taurocholic acid dissolved in HEPES (Gibco 15630080)-buffered (10 mM) HBSS (Gibco 14175079) (pH 7.4). The plates were tapped against a paper towel after every wash to ensure maximum removal of blocking buffer.
100 μL of MicroScint-20 (PerkinElmer 6013621) was added to the wells and kept overnight at room temperature before reading the plates in TopCount NXT™ Microplate Scintillation and Luminescence Counter from PerkinElmer under 3H Test protocol (set at 120 seconds reading time per well, with normal plate orientation).
(§1) All test compounds were provided in powder form at room temperature. 10 mM DMSO stocks of the test compounds were prepared, aliquoted and stored at −20° C. From the 10 mM DMSO stock of the compounds, a 3-fold serial dilution in DMSO was prepared to get a total of 10 dilutions of the test compounds. 0.5 μL of this dilution in DMSO was added to 250 μL of FBS-free basal media containing 3H-taurocholic acid and cold taurocholic acid to prepare the incubation mixture.

The target in test [2] is T2, Human IBAT (Homo sapiens, UniProt Q12908).
T2 construct: expressed in transfected cells; Puromycin selection
T2 sequence (Q12908 1-348): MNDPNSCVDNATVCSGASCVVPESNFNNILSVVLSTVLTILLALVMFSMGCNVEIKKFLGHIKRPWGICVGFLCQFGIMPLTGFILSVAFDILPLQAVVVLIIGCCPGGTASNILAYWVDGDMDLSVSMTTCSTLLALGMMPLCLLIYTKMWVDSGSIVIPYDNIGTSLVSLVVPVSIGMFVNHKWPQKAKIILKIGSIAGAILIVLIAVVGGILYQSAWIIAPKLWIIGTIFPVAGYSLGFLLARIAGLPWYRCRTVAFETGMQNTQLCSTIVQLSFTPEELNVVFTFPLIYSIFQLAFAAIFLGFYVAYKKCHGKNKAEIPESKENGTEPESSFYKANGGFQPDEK
Description: IBAT (h/m) assay, human IBAT-overexpressing cells, 3H-taurocholic acid uptake. The class given is cell-based. The following applies: highest test concentration 10 μM, 20 minutes, read-out: hIBAT IC50. The protocol: 10,000 cells (Human or Mouse IBAT-overexpressing cells) were seeded in 96-wells plate (Corning CLS3809) in 200 μL MEM-alpha medium (Gibco 12571-063) supplemented with 10% FBS (Gibco 10438026) containing Puromycin (Gibco A1113803) (10 μg/mL) and incubated at 37° C. in 5% CO2 for 48 hours. After incubation, media was decanted from the wells and cells were washed two times with 300 μL of basal MEM-alpha medium (FBS-free). After decanting basal MEM-alpha medium each time, plates were tapped against paper towel to ensure maximum removal of residual media. Test inhibitor dilutions (highest test concentration being 10 μM, 3-fold serial dilution, 10 points) prepared in DMSO (Sigma D2650) were added in incubation mix (maintaining 0.2% final DMSO concentration) containing 0.25 μM 3H-taurocholic acid (ARC ART-1368) and 5 μM of cold taurocholic acid (Sigma T4009). 50 μL of incubation mix containing test inhibitors was then added to the wells (in duplicate) and the plates were incubated for 20 minutes in a CO2 incubator at 37° C. After incubation, the reaction was stopped by keeping the plates on ice water mix for 2-3 minutes and then the incubation mix was aspirated completely from the wells. The wells were washed two times with 250 μL of chilled unlabeled 1 mM taurocholic acid dissolved in HEPES (Gibco 15630080)-buffered (10 mM) HBSS (Gibco 14175079) (pH 7.4). The plates were tapped against a paper towel after every wash to ensure maximum removal of blocking buffer.
100 μL of MicroScint-20 (PerkinElmer 6013621) was added to the wells and kept overnight at room temperature before reading the plates in TopCount NXT™ Microplate Scintillation and Luminescence Counter from PerkinElmer under 3H Test protocol (set at 120 seconds reading time per well).
as §1

The term IC50 denotes the concentration needed to halve the response being measured.

Where only a bound is given, the exact number is not on record here.

Consider `CCCCC1CN(c2ccccc2)c2cc(SCC)c(O/C=C/C(=O)O)cc2S(=O)(=O)N1C` (racemic) [Example 17, (E)-3-((3-butyl-7-(ethylthio)-2-methyl-1,1-dioxido-5-phenyl-2,3,4,5-tetrahydro-1,2,5-benzothiadiazepin-8-yl)oxy)acrylic Acid], for which, in test [1], the IC50 is 2.3 nM.

For `CCCCC1CN(c2ccc(F)cc2)c2cc(SC)c(O/C=C/C(=O)O)cc2S(=O)(=O)N1C` (racemic) [Example 20, (E)-3-((3-butyl-5-(4-fluorophenyl)-2-methyl-7-(methylthio)-1,1-dioxido-2,3,4,5-tetrahydro-1,2,5-benzothiadiazepin-8-yl)oxy)acrylic Acid], the IC50 in test [2] was determined as 1150 nM; in test [1], 4.5 nM.

On to `CCC1CN(c2ccccc2)c2cc(SC)c(O/C=C(\F)C(=O)O)cc2S(=O)(=O)C1` (stereo not drawn) [Example 7, (Z)-3-((3-ethyl-7-(methylthio)-1,1-dioxido-5-phenyl-2,3,4,5-tetrahydro-1,5-benzothiazepin-8-yl)oxy)-2-fluoroacrylic Acid], for which the IC50 in test [1] was 73 nM.

Turning to `CCCC[C@H]1CN(c2ccc(F)cc2)c2cc(SC)c(O/C=C/C(=O)O)cc2S(=O)(=O)N1C` (single isomer, unassigned) [Example 21], the IC50 is 644 nM in test [2] and 3 nM in test [1].

For the compound `CCCC[C@@H]1CN(c2ccccc2)c2cc(SC)c(O/C=C/C(=O)O)cc2S(=O)(=O)N1C` (single isomer, unassigned) [Example 16], the IC50 in test [1] stood at 105 nM.

Turning to `CCC1CN(c2ccccc2)c2cc(SC)c(O/C=C/C(=O)O)cc2S(=O)(=O)C1` (stereo not drawn) [Example 8, (E)-3-((3-ethyl-7-(methylthio)-1,1-dioxido-5-phenyl-2,3,4,5-tetrahydro-1,5-benzothiazepin-8-yl)oxy)acrylic Acid], the IC50 in test [1] turned out to be 242 nM.

For the compound `CCCCC1CN(c2ccccc2)c2cc(SCC)c(O/C=C/C(=O)O)cc2S(=O)(=O)N1` (stereo not drawn) [Example 31, (E)-3-((3-Butyl-7-(ethylthio)-1,1-dioxido-5-phenyl-2,3,4,5-tetrahydro-1,2,5-benzothiadiazepin-8-yl)oxy)acrylic Acid], the IC50 in test [2] is > 10000 nM.

Regarding `CCCC[C@H]1CN(c2ccccc2)c2cc(SC)c(O/C=C(\F)C(=O)O)cc2S(=O)(=O)N1C` (single isomer, unassigned) [Example 12], the IC50 in test [1] was 78 nM.

In the case of `CCCC[C@@H]1CN(c2ccc(F)cc2)c2cc(SC)c(O/C=C/C(=O)O)cc2S(=O)(=O)C1` (single isomer, unassigned) [Example 28], the results for the IC50 in test [2] and in test [1] were > 3330 nM and 1.9 nM, respectively.

Regarding `CCCCC1CN(c2ccccc2)c2cc(SC)c(O/C=C/C(=O)O)cc2S(=O)(=O)N1C` (racemic) [Example 14, (E)-3-((3-butyl-2-methyl-7-(methylthio)-1,1-dioxido-5-phenyl-2,3,4,5-tetrahydro-1,2,5-benzothiadiazepin-8-yl)oxy)acrylic Acid], the IC50 in test [1] came out at 3.4 nM.

For `CCCCC1CN(c2ccccc2)c2cc(SC)c(O/C=C(\F)C(=O)O)cc2S(=O)(=O)N1C` (stereo not drawn) [Example 11, (Z)-3-((3-butyl-2-methyl-7-(methylthio)-1,1-dioxido-5-phenyl-2,3,4,5-tetrahydro-1,2,5-benzothiadiazepin-8-yl)oxy)-2-fluoroacrylic Acid], the figures for the IC50 in test [2] and in test [1] were 830 nM and 1.1 nM, respectively.

For `CCCCC1CN(c2ccc(F)cc2)c2cc(SC)c(O/C=C/C(=O)O)cc2S(=O)(=O)C1` (racemic) [Example 26, (E)-3-((3-butyl-5-(4-fluorophenyl)-7-(methylthio)-1,1-dioxido-2,3,4,5-tetrahydro-1,5-benzothiazepin-8-yl)oxy)acrylic Acid], the IC50 in test [2] is > 10000 nM; in test [1] it was 8.7 nM.

Turning to `CCCC[C@H]1CN(c2ccc(F)cc2)c2cc(SC)c(O/C=C/C(=O)O)cc2S(=O)(=O)C1` (single isomer, unassigned) [Example 27], the IC50 in test [2] is > 10000 nM; in test [1], 354 nM.

With `CCCCC1CN(c2ccc(F)cc2)c2cc(SCC)c(O/C=C/C(=O)O)cc2S(=O)(=O)C1` (stereo not drawn) [Example 32, (E)-3-((3-Butyl-7-(ethylthio)-5-(4-fluorophenyl)-1,1-dioxido-2,3,4,5-tetrahydro-1,5-benzothiazepin-8-yl)oxy)acrylic Acid], the IC50 in test [2] is > 10000 nM.

Take `CCCC[C@@H]1CN(c2ccccc2)c2cc(SC)c(O/C=C/C(=O)O)cc2S(=O)(=O)C1` (single isomer, unassigned) [Example 2]: the IC50 in test [1] amounted to 469 nM.

`CCCC[C@@H]1CN(c2ccc(F)cc2)c2cc(SCC)c(O/C=C/C(=O)O)cc2S(=O)(=O)N1C` (single isomer, unassigned) [Example 25]: the IC50 in test [1] turned out to be 267 nM.

For `CCCC[C@H]1CN(c2ccccc2)c2cc(SC)c(O/C=C(\F)C(=O)O)cc2S(=O)(=O)C1` (single isomer, unassigned) [Example 5], the IC50 in test [1] was 28 nM.

For the compound `CCCC[C@@H]1CN(c2ccc(F)cc2)c2cc(SC)c(O/C=C/C(=O)O)cc2S(=O)(=O)N1C` (single isomer, unassigned) [Example 22], the IC50 was > 10000 nM in test [2] and 591 nM in test [1].

In the case of `CCCC[C@H]1CN(c2ccc(F)cc2)c2cc(SCC)c(O/C=C/C(=O)O)cc2S(=O)(=O)N1C` (single isomer, unassigned) [Example 24], the half-maximal inhibitory concentration (IC50) came to 265 nM in test [2] and 0.34 nM in test [1].

Turning to `CCCCC1CN(c2ccccc2)c2cc(SCC)c(O/C=C/C(=O)O)cc2S(=O)(=O)C1` (stereo not drawn) [Example 30, (E)-3-((3-Butyl-7-(ethylthio)-1,1-dioxido-5-phenyl-2,3,4,5-tetrahydro-1,5-benzothiazepin-8-yl)oxy)acrylic Acid], the results for the IC50 in test [2] and in test [1] were > 10000 nM and 9.5 nM, respectively.

For `CCCCC1CN(c2ccccc2)c2cc(SC)c(O/C=C/C(=O)O)cc2S(=O)(=O)N1` (stereo not drawn) [Example 9, (E)-3-((3-butyl-7-(methylthio)-1,1-dioxido-5-phenyl-2,3,4,5-tetrahydro-1,2,5-benzothiadiazepin-8-yl)oxy)acrylic Acid], in test [1], the IC50 turned out to be 8.2 nM.
